The subject of one series is stress ulcer. Kind of series: Stress ulcer test (immobilized rats, ulcer index). The conditions noted are these: for U.I. (delta %): control = 100. Format: in vivo, female wistar rats. How it is done: For the following tests 200-250 g female wistar rats were fasted for 24 hours before the experiment. Water was given ad libium. A. STRESS ULCER TEST The rats were immobilized on their backs for 24 hours. After immobilization the animals were killed, and their stomachs were prepared for ulcer analysis. The gastric cytoprotective effect of PCCD was tested by administering it in the following way: Case A: At 0, 6th, 12th and 18th hour after the immobilization. Administrations were carried out both ip and per os. In both cases the animals were killed and their stomachs prepared for ulcer analysis. In each experiment the ulcer index was calculated. In the calculation of the U.I., each mm^2 of ulcer or erosion is 1 point. Bleeding results in an additional 5 points. Perforation means an additional 10 points. The number of animals is (n=20) in each group. Mean (%)±S.E.M. is calculated. Statistical analysis is done according to the Student's T-Test. Significance level, p is less than 0.05.

For series [1] the following is noted: in vivo; cited from earlier work.
In series [2] the test system is gastric lesions on the corpus mucosa. The series is described as follows: Gastric cytoprotective test (ethanol-induced gastric lesions, A. Robert). It counts as in vivo, rats. Particulars: for ED50: Rattus norvegicus, PCCD values relate to active ingredient. How it is done: For the following tests 200-250 g female wistar rats were fasted for 24 hours before the experiment. Water was given ad libium.
C. GASTRIC CYTOPROTECTIVE TEST
The following method according to the abovementioned reference was employed:
The cytoprotective substances were applied before giving ethanol p.o. or subcutaneously. As controls, prostacylin (PGI2) and PGE2 were used.
Evaluation was carried out by killing the animals and then removing their stomachs. The number of gastric lesions was determined in each case. The dose of the cytoprotective compounds giving a 50% inhibiting effect was determined. The number of gastric erosions in the stomachs of animals not treated with a cytoprotective agent was designated 100%.

The subject of the next series is gastric mucosa. The conditions noted are these: in vivo; cited from earlier work.
The nature of series [3]: Stability on oral application (acidic pH of the stomach). It counts as physicochemical. Particulars: oral administration.
Setting [4] is: 100 micrograms/kg i.p., PCCD data calculated for active ingredient.

The text below walks through data of patent US4623641A, “Method of treating ulcers and erosions in the gastrointestinal system using PGI2 -methyl ester-beta cyclodextrin inclusion complexes” (Chinoin Gyogyszer es Vegyeszeti Termekek Gyara R.T., priority 1985, dated 1986).

Regarding `OC[C@H]1O[C@@H]2O[C@H]3[C@H](O)[C@@H](O)[C@@H](O[C@H]4[C@H](O)[C@@H](O)[C@@H](O[C@H]5[C@H](O)[C@@H](O)[C@@H](O[C@H]6[C@H](O)[C@@H](O)[C@@H](O[C@H]7[C@H](O)[C@@H](O)[C@@H](O[C@H]8[C@H](O)[C@@H](O)[C@@H](O[C@H]1[C@H](O)[C@H]2O)O[C@@H]8CO)O[C@@H]7CO)O[C@@H]6CO)O[C@@H]5CO)O[C@@H]4CO)O[C@@H]3CO` [Beta-cyclodextrin], in the series with stress ulcer (5 mg/kg i.p.), the “U.I. ± S.E.M.” value was determined as 6.8 ± 2.15 and the “U.I. (delta %)” value stood at 77.9%.

For the compound `CN/C(=N/CCSCc1nc[nH]c1C)NC#N` [Cimetidine], in the series on stress ulcer (10 mg/kg i.p.), the “U.I. ± S.E.M.” value was found to be 3.0 ± 1.08 and the “U.I. (delta %)” value was 38.9%. Also, in the series on stress ulcer (10 mg/kg p.o.), the “U.I. ± S.E.M.” value was determined as 2.82 ± 1.36 and the “U.I. (delta %)” value is listed as 36.7%.

Turning to `CCCCC[C@H](O)/C=C/[C@H]1[C@H](O)CC(=O)[C@@H]1C/C=C\CCCC(=O)O` [PGE2], the side effects entry in series [1] was “diarrhogen side effects”. Besides, the ED50 in series [2] (po, orally) is 0.03 mg/kg; in series [2] (sc, subcutaneously) it was 0.1 mg/kg. Also, the “cytoprotective effect compared with PGI2” value in series [2] (oral application) is reported as “more effective”. Moreover, the “decreasing the blood loss of the gastric mucosa induced by non-steroidal antiphlogistics” value with gastric mucosa is “significantly effective”. Besides, in the series on gastric mucosa, the “therapy of peptic ulcers” value is given as “significantly effective”.

For `CCCCC[C@H](O)/C=C/[C@@H]1[C@H]2C/C(=C/CCCC(=O)O)O[C@H]2C[C@H]1O` [PGI2, prostacyclin], in the series on stress ulcer (setting [4]), the “U.I. ± S.E.M.” value is 5.4 ± 1.54. For the same compound, in the series with stress ulcer (setting [4]), the “U.I. (delta %)” value is given as 70.0%. Also, in series [3], the “stability compared with PGE2” value was “more unstable than is PGE2”. For the same compound, the ED50 amounted to 1.8 mg/kg in series [2] (po, orally) and 0.04 mg/kg in series [2] (sc, subcutaneously). In series [2] (administered subcutaneously), the “cytoprotective effect compared with PGE2” value is “stronger cytoprotective effect than PGE2”.

In the case of `COc1ccc2c(c1)c(CC(=O)O)c(C)n2C(=O)c1ccc(Cl)cc1` [indomethacin], the side effects result in series [1] was “ulcerogenic side effects”.

By ED50 is commonly meant the midpoint of the dose-response relation. Read a low ED50 as greater potency.
